Experimental data published in patent US10668032B2 (SyneuRx International (Taiwan) Corp., priority 2016, dated 2020).

Key:
[1] = tested on: B6SJL-Tg(SOD1*G93A)1Gur/J mice; assay: SOD1*G93A transgenic ALS mice: behavioral tasks, body weight, survival; assay type: in vivo, mouse
Source text: Disease onset of B6SJL-Tg(SOD1*G93A)1Gur/J mice occurred at around 80-90 days of age, while progressive clinical weakness followed by paralysis and death occurred by 135-140 days.
In cohort 2, the male transgenic and wild-type littermates were randomly divided into 3 groups as cohort 1: vehicle (n=5), vehicle-ALS (n=6), and drug-ALS (n=11). Disease onset occurred at around 110-120 days of age, while progressive clinical weakness followed by paralysis and death occurred at around 150-155 days.
In cohort 1, drug regimen was initiated 8 weeks after birth and continued until the end of study. […] The vehicle groups received injections of the same volume of saline.
The drug regimen for cohort 2 was the same as that for cohort 1 except the dosing was started at 10 weeks of age.
Open field is an animal behavioral task that can monitor the overall spontaneous locomotor activity. Each animal was placed in an empty test arena (60 cm×60 cm plastic boxes) for 1 hour, and its activity was assessed by VersaMax Animal Activity Monitoring System (AccuScan Instruments, Inc. Columbus Ohio, USA). Total traveling distance, number of rearing movements and rearing time were analyzed. Performance of open field was measured 1-2 times per week.
In the open field task, each animal was placed in an empty test arena (43.2 cm×21.6 cm plastic boxes) for 1 hour, and its activity was assessed by Photobeam Activity System (San Diego Instruments, USA). Total traveling and rearing activities (beam break times) were analyzed. Performance of open field was measured once per week.
Rorarod task, which requires animals to balance and walk on a rotating cylinder, is a widely used test to measure coordinated motor skills. The mice were placed on a 5-channel automatic revolving rod apparatus (PanLab/Harvard Apparatus). […] After the training sessions, motor coordination was evaluated at 16 rpm for a maximum of 5 min. […] Performance of rotarod task was measured once per week, and the longest retention time for each animal was recorded.
A metal wire mesh (0.2 cm diameter, 1 cm×1 cm wide grid) was fixed horizontally 30 cm above the table. […] The latency to fall was recorded when the animal fell, and a maximum time of 180 s was assigned for analysis. There were two sessions for each individual with a 30-min interval, and the longer time was recorded. Performance of hanging test was measured once per week.
For each animal, body weight was measured weekly starting at 10 weeks of age. […]
Date and cause of death were recorded for each mouse. Animals were closely monitored and euthanized if moribund, which was defined as the inability of mice to right themselves 30 seconds after being placed on a side, in accordance with the criteria for severe morbidity. The moribund mice were recorded as “dead”, and euthanized using carbon dioxide.

primary cortical neurons [2] = assay: 3-NP induced toxicity in primary cortical culture (Hoechst staining, MAP-2 immunocytochemistry); assay type: cell-based, rat
Procedure: Primary cortical cultures were prepared from embryonic day 18 (E18) fetal Sprague Dawley (SD) rat brains. The cells were maintained in Neurobasal medium supplemented with B27 (GIBCO/Life Technologies of Thermo Fisher Scientific Corporation) at 37° C. for 7 days to allow growth of dendrites before experimentation.
3-NP (Cat. No. 73803, Sigma, St. Louis, Mo., USA) was dissolved in phosphate-buffered saline (PBS) as a stock solution of 1 M and adjusted to pH 7.4 with 10 M sodium hydroxide. The 3-NP stock solution was then dispensed into 1-ml aliquots, protected from light, and stored at −20° C. until use.
Hoechst staining is used to assess the extent of the cell survival. Cells were fixed in 4% paraformaldehyde (PFA) in phosphate-buffered saline (PBS), incubated with the Hoechst 33342 diluted in PBS (1:1000) for 5-15 minutes. The Hoechst staining is used to assess the extent of the cell survival after the exposure to 2.5 mM 3-NP for 24 hours.
Cells were fixed in 4% PFA and washed in PBS, blocked with 2% bovine serum albumin (BSA) and treated by 0.03% Triton X-100 in PBS, before being incubated with mouse monoclonal antibody against microtubule-associated protein-2 (MAP-2) in 1:150 dilution (Cat. No. MAB378, CHEMICON International, Inc., Temecula, Calif., USA). The goat anti-mouse IgG Alexa fluor-conjugated secondary antibodies (Cat No. A11003, Thermo Scientific) in 1:500 dilution were applied to recognize the primary antibodies of the MAP-2. For confocal microscopy, the coverslips were observed under a laser-scanning confocal microscope (Zeiss LSM700; Oberkochen, Germany) equipped with filter sets to detect the corresponding fluorescent signals.
The cells were then exposed to 2.5 mM 3-NP for 24 hours.
Quantitative analysis was also performed to assess the extents of cell death. At least three vision fields were randomly selected and the averaged numbers of dead cells and all nuclei per vision field on each coverslip were calculated.

C57BL/6J mice = assay: Von Frey test of acute mechanical pain; assay type: in vivo, mouse; conditions: 256 mg/kg i.p.
Procedure: Animals are housed and kept in the same condition as previous described.
The Von Frey test is used to assess mechanical nociception. A mouse is placed in a small box (10 cm×6 cm×10.5 cm) on a confined area of wire mesh (65 cm×21 cm×31 cm) (2450 Electronic Von Frey Anesthesiometer, IITC, U.S.A.). The mouse was kept in the box for 60 min to acclimatize. When the tested mouse calms down, a special tip with electrode inside was used to poke its hind paw.

primary cortical neurons [3] = assay: Aβ25-35 cytotoxicity in primary cortical culture, cell survival (MTT)
Procedure: MTT assay was used to assess the extents of cell survival. MTT (3-(4,5-dimethylthiazol-2-yl)-2,5-diphenyltetrazolium bromide) was added to the culture, incubated at 37° C. for 4 hours. Insoluble purple formazan products were yield by living cells. The colorimetric method was used to quantify the surviving cells, and “cell survival (%)” was defined as the mean numbers of surviving cells.
Primary cortical cultures were prepared as previous described. Aβ25-35 (Cat. No. A4559, Sigma) was dissolved in autoclaved ddH2O to make a stock solution of 2 mM, dispensed into aliquots, and immediately stored at −80° C. until use.

cortical neurons = assay: Mitochondrial respiration, XF Cell Mito Stress Test (OCR); assay type: cell-based, rat; conditions: 3 mM, pre-treatment 24 h
Procedure: The preparation of primary cortical culture was as described before, but the cells were seeded on XF 96 well cell culture microplates. On the day of assay, culture media were changed to XF Assay medium (Seahorse Biosciences, USA). Prior to assay, plates were transferred into an incubator with CO2 supplementation at 37° C. and kept for 1 hour. The overall OCR was calculated.
The XF Cell Mito Stress Test modulates respiration that target components of the electron transport chain (ETC) in the mitochondria to reveal key parameters of metabolic function. The modulators (oligomycin, FCCP, and a mix of rotenone and antimycin A) are serially injected to measure ATP production, maximal respiration, and non-mitochondrial respiration. Proton leak and spare respiratory capacity are then calculated using these parameters.

[4] = 256 mg/kg/day i.p., vs ALS mice treated with vehicle

Structure (SMILES): O=C([O-])c1ccccc1.[Li+] [lithium benzoate]
- proportion of mice surviving over time [1, 4]: improved
- weight change [1, 4]: improved
- hind limb functions (number of rearing movements, rearing time; open field) ([1]; cohort 1, female, 256 mg/kg/day i.p. from 8 weeks, about 90 to about 130 days of age, vs saline ALS mice): significantly improved
- motor functions (hanging test, rotarod test, rearing activity, traveling activity) ([1]; cohort 2, male, 256 mg/kg/day i.p. from 10 weeks, about 133 to about 147 days of age, vs saline ALS mice): improved
- cell survival, drug only (primary cortical neurons [2]; cortical culture treated only with lithium benzoate, not 3-NP): No difference
- cell survival (protection from 3-NP induced neuron death) (primary cortical neurons [2]; lithium benzoate 1 mM or 3 mM pre-treatment 24 h, then 2.5 mM 3-NP 24 h): significantly protected
- MAP-2 immunocytochemistry, confocal microscopy (primary cortical neurons [2]; lithium benzoate 1 or 3 mM, 3-NP exposure): neuronal protection
- acute mechanically evoked pain (paw withdrawal threshold) (C57BL/6J mice; vs PBS): alleviated
- time course of the antinociceptive effect (C57BL/6J mice; tested at 30, 60, 90, 120 min): obvious after 30 min of administration and lasted till 60 min
- cortical cell survival after Aβ25-35 (primary cortical neurons [3]; 10 μM Aβ 25-35 for 2 days, then drug 1 mM for 4 days, vs no drug treatment): statistical improvement
- reduction of cell death from Aβ25-35 toxicity compared with sodium benzoate and lithium chloride (primary cortical neurons [3]; 1 mM each, 4 days): much more than the other two drugs
- basal respiration (basal OCR) (cortical neurons): reduced more basal OCR than the other groups
- spare respiratory capacity (cortical neurons): increasing of spare respiratory capacity
- ATP production (cortical neurons; versus NaBen or LiCl): better reduction levels
- proton leak (cortical neurons; versus NaBen or LiCl): better reduction levels
